Data as given in ChEMBL document CHEMBL1133962, “Bicyclic anti-VZV nucleosides: Thieno analogues retain full antiviral activity” (Bioorg Med Chem Lett, 2001).

Legend:
HEL [1] = assay: Minimal cytotoxic concentration required to alter microscopically detectable cell (of human embryonic lung cells (HEL)) morphology; assay type: functional
HEL [2] = assay: Antiviral activity was measured as effective concentration required to reduce Varicella Zoster virus (YS)-induced plaque formation in human embryonic lung cells; assay type: functional, cell-based
HEL [3] = assay: Antiviral activity was measured as effective concentration required to reduce thymidine kinase-deficient. Varicella Zoster virus (YS/R)-induced plaque formation in human embryonic lung cells; assay type: functional, cell-based
HEL [4] = assay: Antiviral activity was measured as effective concentration required to reduce Varicella Zoster virus (OKA)-induced plaque formation in human embryonic lung cells; assay type: functional, cell-based
HEL [5] = assay: Antiviral activity was measured as effective concentration required to reduce thymidine kinase-deficient. Varicella Zoster virus (07/1)-induced plaque formation in human embryonic lung cells; assay type: functional, cell-based
HEL [6] = assay: Cytotoxic concentration required to inhibit growth of human embryonic lung cells (HEL); assay type: functional

## CCCCCCCCCCCCc1cc2cn([C@H]3C[C@H](O)[C@@H](CO)O3)c(=O)nc2s1
HEL [1]
  MCC: 12 µM
HEL [2]
  EC50: 300 nM
HEL [3]
  EC50: > 5000 nM
HEL [4]
  EC50: 200 nM
HEL [5]
  EC50: > 5000 nM
HEL [6]
  CC50: 49000 nM

## CCCCCCCCc1cc2cn([C@H]3C[C@H](O)[C@@H](CO)O3)c(=O)nc2s1
HEL [1]
  MCC: 20 µM
HEL [2]
  EC50: 5 nM
HEL [3]
  EC50: > 5000 nM
HEL [4]
  EC50: 2 nM
HEL [5]
  EC50: ≥ 5000 nM
HEL [6]
  CC50: 53000 nM

## CCCCCCCCCCc1cc2cn([C@H]3C[C@H](O)[C@@H](CO)O3)c(=O)nc2s1
HEL [1]
  MCC: 20 µM
HEL [2]
  EC50: 60 nM
HEL [3]
  EC50: > 5000 nM
HEL [4]
  EC50: 30 nM
HEL [5]
  EC50: > 5000 nM
HEL [6]
  CC50: 54000 nM

## CCCCc1cc2cn([C@H]3C[C@H](O)[C@@H](CO)O3)c(=O)nc2s1
HEL [1]
  MCC: ≥ 100 µM
HEL [2]
  EC50: 150 nM
HEL [3]
  EC50: 153000 nM
HEL [4]
  EC50: 160 nM
HEL [5]
  EC50: ≥ 200000 nM
HEL [6]
  CC50: > 200000 nM

## CCCCCCCCCCc1cc2cn([C@H]3C[C@H](O)[C@@H](CO)O3)c(=O)nc2o1
HEL [1]
  MCC: > 50 µM
HEL [2]
  EC50: 8 nM
HEL [3]
  EC50: > 50000 nM
HEL [4]
  EC50: 15 nM
HEL [5]
  EC50: > 50000 nM
HEL [6]
  CC50: > 50000 nM

## CCCCCCCCCc1cc2cn([C@H]3C[C@H](O)[C@@H](CO)O3)c(=O)nc2s1
HEL [1]
  MCC: > 20 µM
HEL [2]
  EC50: 10 nM
HEL [3]
  EC50: > 20000 nM
HEL [4]
  EC50: 10 nM
HEL [5]
  EC50: > 20000 nM
HEL [6]
  CC50: > 20000 nM

## CCCCCCc1cc2cn([C@H]3C[C@H](O)[C@@H](CO)O3)c(=O)nc2s1
HEL [1]
  MCC: 125 µM
HEL [2]
  EC50: 140 nM
HEL [3]
  EC50: ≥ 50000 nM
HEL [4]
  EC50: 140 nM
HEL [5]
  EC50: ≥ 50000 nM
HEL [6]
  CC50: > 200000 nM

## Nc1nc2c(ncn2COCCO)c(=O)[nH]1 [ACYCLOVIR]
HEL [1]
  MCC: > 200 µM
HEL [2]
  EC50: 1500 nM
HEL [3]
  EC50: 44000 nM
HEL [4]
  EC50: 1100 nM
HEL [5]
  EC50: 40000 nM
HEL [6]
  CC50: > 400000 nM
